In brackets after ≈: the same amount, converted by molar mass. Read-outs that look alike come from different tables or passages of the source.
Legend:
[1] = system: Escherichia coli ATCC25922; assay: Antibiofilm assay (crystal violet), MBIC; type: cell-based; settings: 37 °C; for minimal effective concentration: Escherichia coli, ATCC25922, 24 h, read-out: Minimum biofilm inhibition concentration (MBIC), Escherichia coli ATCC25922
How it was run: (§1)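 Biofilms grown in nutrient broth with test substances for 24 h at 37 °C. After rinsing with sterile physiological water, attached cells were fixed 5 min with methanol, then crystal violet stained.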

[2] = system: Pseudomonas aeruginosa ATCC27853; assay: Antibiofilm assay (crystal violet), MBIC; type: cell-based; settings: 37 °C; for minimal effective concentration: Pseudomonas aeruginosa, ATCC27853, 24 h, read-out: Minimum biofilm inhibition concentration (MBIC), Pseudomonas aeruginosa ATCC27853
How it was run: as §1

[3] = system: Staphylococcus aureus ATCC25923; assay: Antibiofilm assay (crystal violet), MBIC; type: cell-based; settings: 24 h, 37 °C; for minimal effective concentration: Staphylococcus aureus, ATCC25923, read-out: Minimum biofilm inhibition concentration (MBIC), Staphylococcus aureus ATCC25923
How it was run: as §1

[4] = system: Enterococcus faecalis ATCC29212; assay: Antibiofilm assay (crystal violet), MBIC; type: cell-based; settings: Enterococcus faecalis, ATCC29212, 24 h, 37 °C, read-out: Minimum biofilm inhibition concentration (MBIC), Enterococcus faecalis ATCC29212
How it was run: as §1

[5] = MTT cell viability / cytotoxicity on normal fibroblasts; type: cell-based, mouse; settings: mouse
Text: (§2) Merck chemicals were utilized.
(§3) Untreated cells were used as control, considered 100% viable cells.

[6] = system: NCTC (clone 929) mouse fibroblast cells; assay: as above; type: cell-based; settings: for IC50: Mus musculus, NCTC clone 929, NCTC normal fibroblasts, MTT, 48 h
Text: as §2, §3

[7] = system: HEp-2 epithelial tumor cells; assay: MTT cell viability / anti-tumor activity; settings: Homo sapiens; for viability at 3.1 µg/mL / viability at 6.25 µg/mL / viability at 12.5 µg/mL / viability at 25 µg/mL / viability at 50 µg/mL: read-out: Cell viability on Hep2 cells (%); for IC50: read-out: IC50 µg/mL on HEp-2 Cells 48 h, HEp-2 epithelial tumor cells, MTT, 48 h
Experimental: The cytotoxicity of the halogenoaminopyrazole derivatives 4a–f and 5a–e was tested on L929 mouse fibroblast cells, and their anti-tumor activity was evaluated on the human carcinoma epithelial cell line HEp-2. The experiments were performed in a concentration range of 3.1–50 μg/mL.
The MTT test was used, 3-(4,5-dimethylthiazol-2-yl)-2,5-diphenyl tetrazolium bromide), which is reduced to insoluble purple-blue formazan crystals precipitated by living cells. Cell viability assessed using the MTT assay reflects the activity of mitochondrial enzymes in treated cells compared to the control culture of untreated cells.
To assess the biocompatibility of the substances, a stable mouse fibroblast cell line, NCTC (clone 929), was grown in minimal essential medium (MEM) with 10% fetal bovine serum (FBS) and 2 mM L-glutamine, along with 100 U/mL penicillin, 100 µg/mL streptomycin, and 500 µg/mL neomycin. The concentration of the compounds used was 0.06 g/2 mL DMSO.
In cytotoxicity experiments, compound solutions were utilized at concentrations of 3.1 μg/mL, 6.25 μg/mL, 12.5 μg/mL, 25 μg/mL, and 50 μg/mL. The NCTC cell suspension was placed into 96-well culture plates with a concentration of 4 × 10^4 cells/mL and incubated at 37 °C for 24 h in a 5% CO2 humidified atmosphere. The compounds under study were placed in sets of three at varying concentrations ranging from 3.1 μg/mL to 50 μg/mL in every well, and the plates were then kept under standard conditions for 48 h. Cell viability was determined through the utilization of the MTT assay. Next, the MTT solution was removed, then isopropanol was added to solubilize the formazan crystals. The colored solution was then measured for absorbance at 570 nm using a Berthold Technologies, LB 940 microplate reader (Bad Wildbad, Germany). The outcomes were determined based on Formula (1) while considering that the recorded optical density is directly related to the number of viable cells in the cell culture being examined [35, 36]. % cell viability = (OD sample/OD control) × 100%(1)
For each tested compound, a graph representing percentage cell viability versus concentrations (in the range 3.1–50 µg/mL) was obtained. Then, the IC50 value was calculated by using ED50 plus V1.0 software.

[8] = system: Escherichia coli ATCC25922; assay: MIC by serial microdilution in liquid medium; type: cell-based; settings: 24 h, 37 °C; for MIC: Escherichia coli, ATCC25922, read-out: Minimum inhibitory concentration, Escherichia coli ATCC25922
How it was run: (§4)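 Twofold serial dilutions from a DMSO stock (10 mg/mL) in Tryptone Soy Broth, inoculated with 10 µL of a 10^6 CFU/mL suspension, incubated 24 h at 37 °C. Growth judged visually and by OD 620 nm; MIC (µg/mL) is the lowest concentration without growth, run in triplicate.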

[9] = system: Pseudomonas aeruginosa ATCC27853; assay: MIC by serial microdilution in liquid medium; type: cell-based; settings: Pseudomonas aeruginosa, ATCC27853; 24 h, 37 °C; read-out: Minimum inhibitory concentration, Pseudomonas aeruginosa ATCC27853
How it was run: as §4

[10] = system: Staphylococcus aureus ATCC25923; assay: MIC by serial microdilution in liquid medium; type: cell-based; settings: 24 h, 37 °C; for MIC: Staphylococcus aureus, ATCC25923, read-out: Minimum inhibitory concentration, Staphylococcus aureus ATCC25923
How it was run: as §4

[11] = system: Enterococcus faecalis ATCC29212; assay: MIC by serial microdilution in liquid medium; type: cell-based; settings: Enterococcus faecalis, ATCC29212; 24 h, 37 °C; read-out: Minimum inhibitory concentration, Enterococcus faecalis ATCC29212
How it was run: as §4

[12] = system: Escherichia coli ATCC25922; assay: Qualitative evaluation of antimicrobial activity (inhibition zone, spot on agar); type: cell-based; design: key: (+) inhibited bacterial growth; (-) did not inhibit bacterial growth; settings: 0.06 g/2 mL DMSO, 5 µL spot
Experimental: (§5) For testing the antimicrobial/antibiofilm activity, the concentration of the studied compounds was identical to 0.06 g/2 mL DMSO. 0.5 Standard McFarland suspension was used, which was inoculated onto Mueller Hinton agar plates, (Remel, Lenexa, KS, USA), 5 µL of each compound was spotted and incubated overnight at 37 °C. Antimicrobial activity was observed as zones of inhibition formed around the spot.

[13] = system: Pseudomonas aeruginosa ATCC27853; assay: as above; type: cell-based; design: key: (+) inhibited bacterial growth; (-) did not inhibit bacterial growth; settings: 0.06 g/2 mL DMSO, 5 µL spot
Experimental: as §5

[14] = system: Staphylococcus aureus ATCC25923; assay: as above; type: cell-based; design: key: (+) inhibited bacterial growth; (-) did not inhibit bacterial growth; settings: 0.06 g/2 mL DMSO, 5 µL spot
Experimental: as §5

[15] = system: Enterococcus faecalis ATCC29212; assay: as above; type: cell-based; design: key: (+) inhibited bacterial growth; (-) did not inhibit bacterial growth; settings: 0.06 g/2 mL DMSO, 5 µL spot
Experimental: as §5

[16] = NCTC clone 929 (L929) mouse fibroblast cells
[17] = read-out: Cell viability on NCTC cells (%)

Row | Structure (SMILES) | minimal effective concentration [1] | minimal effective concentration [2] | minimal effective concentration [3] | minimal effective concentration [4] | melting point | IC50 [6] | viability at 3.1 µg/mL ([7]; HEp-2, 24 h) | viability at 6.25 µg/mL ([7]; HEp-2, 24 h) | viability at 12.5 µg/mL ([7]; HEp-2, 24 h) | viability at 25 µg/mL ([7]; HEp-2, 24 h) | viability at 50 µg/mL ([7]; HEp-2, 24 h) | viability at 3.1 µg/mL ([7]; HEp-2, 48 h) | viability at 6.25 µg/mL ([7]; HEp-2, 48 h) | viability at 12.5 µg/mL ([7]; HEp-2, 48 h) | viability at 25 µg/mL ([7]; HEp-2, 48 h) | viability at 50 µg/mL ([7]; HEp-2, 48 h) | IC50 ([7]; HEp-2, 48 h) | MIC [8] | MIC [9] | MIC [10] | other results
1 | Cc1nn(CNc2ccc(F)cc2)c(C)c1[N+](=O)[O-] [4a, N-[(3,5-dimetyl-4-nitro-1H-pyrazol-1-yl)-methyl]-4-fluoroaniline] | 930 ± 0.05 µg/mL | 930 ± 0.28 µg/mL | 230 µg/mL | 930 ± 0.27 µg/mL | 117 to 119 °C | 46.4 ± 1.33 µg/mL (≈ 176 µM) | 99.1 ± 3.42% | 94.4 ± 1.19% | 93.38 ± 0.92% | 91.3 ± 3.73% | 73.2 ± 2.71% | 93.05 ± 0.78% | 89 ± 1.5% | 83.8 ± 2.3% | 72.3 ± 1.99% | 36.4 ± 1.45% | 40.2 ± 1.26 µg/mL (≈ 152 µM) | 930 ± 0.14 µg/mL (≈ 3520 µM) | 930 ± 0.27 µg/mL (≈ 3520 µM) | 230 µg/mL (≈ 870 µM) | Minimum biofilm inhibition concentration (MBIC), Staphylococcus aureus ATCC25923 [3]: 230 ± 0.11 µg/mL; viability at 24 h, 3.1 µg/mL [5, 16]: 99.6 ± 1.38%; viability at 24 h, 6.25 µg/mL [5, 16]: 99.3 ± 2.2%; viability at 48 h, 6.25 µg/mL [5, 16]: 111%; viability at 24 h, 12.5 µg/mL [5, 16]: 99 ± 2.51%; viability at 48 h, 12.5 µg/mL [5, 16]: 101 ± 1.48%; viability at 24 h, 25 µg/mL [5, 16]: 90.2 ± 1.71%; viability at 48 h, 25 µg/mL [5, 16]: 73.5 ± 2.96%; viability at 24 h, 50 µg/mL [5, 16]: 62.7 ± 1.88%; viability at 48 h, 50 µg/mL [5, 16]: 47.5 ± 1.31%; Cell viability on NCTC cells (%) ([6]; 6.25 µg/mL, 48h): 109.13±3.80%; Minimum inhibitory concentration, Staphylococcus aureus ATCC25923 [10]: 230 ± 0.13 µg/mL (≈ 870 µM); MIC [11]: 930 ± 0.25 µg/mL (≈ 3520 µM); Qualitative antimicrobial activity, Escherichia coli ATCC25922 [12]: +; Qualitative antimicrobial activity, Pseudomonas aeruginosa ATCC27853 [13]: +; Qualitative antimicrobial activity, Staphylococcus aureus ATCC25923 [14]: +; Qualitative antimicrobial activity, Enterococcus faecalis ATCC29212 [15]: -
2 | Cc1nn(CN(Cn2nc(C)c([N+](=O)[O-])c2C)c2ccc(F)cc2)c(C)c1[N+](=O)[O-] [5a, N,N-bis-[(3,5-dimetyl-4-nitro-1H-pyrazol-1-yl)-methyl]-4-fluoroaniline] | 460 µg/mL | 460 µg/mL | 230 µg/mL | 930 ± 0.14 µg/mL | 78 to 80 °C | > 50 µg/mL | 90.8 ± 1.1% | 104.4 ± 0.32% | 96.6 ± 3.1% | 82.7 ± 1.85% | 57.2 ± 1.13% | 90.1 ± 2.22% | 85.2 ± 3.13% | 80.1 ± 1.54% | 67.4 ± 3.23% | 38.8 ± 0.71% | 40.5 ± 0.79 µg/mL (≈ 97.1 µM) | 460 µg/mL (≈ 1100 µM) | 460 ± 0.04 µg/mL (≈ 1100 µM) | 460 µg/mL (≈ 1100 µM) | Minimum biofilm inhibition concentration (MBIC), Escherichia coli ATCC25922 ([1]; 24 h): 460 ± 0.12 µg/mL; Minimum biofilm inhibition concentration (MBIC), Pseudomonas aeruginosa ATCC27853 ([2]; 24 h): 460 ± 0.12 µg/mL; Minimum biofilm inhibition concentration (MBIC), Staphylococcus aureus ATCC25923 [3]: 230 ± 0.05 µg/mL; viability at 24 h, 3.1 µg/mL [5, 17]: 97.7 ± 1.8%; viability at 48 h, 3.1 µg/mL [5, 17]: 87.19 ± 0.7%; viability at 24 h, 6.25 µg/mL [5, 17]: 98.3 ± 2.22%; viability at 48 h, 6.25 µg/mL [5, 17]: 88.7 ± 2.4%; viability at 24 h, 12.5 µg/mL [5, 17]: 100 ± 2.07%; viability at 48 h, 12.5 µg/mL [5, 17]: 98.2 ± 2.04%; viability at 24 h, 25 µg/mL [5, 17]: 97.4 ± 2.4%; viability at 48 h, 25 µg/mL [5, 17]: 93.7 ± 1.17%; viability at 24 h, 50 µg/mL [5, 17]: 88.6 ± 2.66%; viability at 48 h, 50 µg/mL [5, 17]: 92.5 ± 1.32%; Minimum inhibitory concentration, Escherichia coli ATCC25922 [8]: 460 ± 0.06 µg/mL (≈ 1100 µM); Minimum inhibitory concentration, Staphylococcus aureus ATCC25923 [10]: 460 ± 0.03 µg/mL (≈ 1100 µM); MIC [11]: 930 ± 0.06 µg/mL (≈ 2230 µM); Qualitative antimicrobial activity, Escherichia coli ATCC25922 [12]: +; Qualitative antimicrobial activity, Pseudomonas aeruginosa ATCC27853 [13]: +; Qualitative antimicrobial activity, Staphylococcus aureus ATCC25923 [14]: +; Qualitative antimicrobial activity, Enterococcus faecalis ATCC29212 [15]: -
3 | Cc1nn(CN(Cn2nc(C)c([N+](=O)[O-])c2C)c2cccc(Cl)c2)c(C)c1[N+](=O)[O-] [5e, N,N-bis-[(3,5-dimetyl-4-nitro-1H-pyrazol-1-yl)-methyl]-3-chloroaniline] | 930 ± 0.15 µg/mL | 930 ± 0.15 µg/mL | 930 ± 0.15 µg/mL | 930 ± 0.15 µg/mL | 154 to 155 °C | 20.3 ± 0.45 µg/mL (≈ 46.8 µM) | 103.7 ± 0.73% | 102.4 ± 0.28% | 82.29 ± 0.32% | 70.5 ± 0.88% | 59.94 ± 0.42% | 102.5 ± 0.48% | 96.06 ± 0.34% | 77.4 ± 0.63% | 60.3 ± 0.67% | 37.7 ± 0.46% | 31.7 ± 0.48 µg/mL (≈ 73.1 µM) | 1870 ± 0.08 µg/mL (≈ 4310 µM) | 1870 ± 0.04 µg/mL (≈ 4310 µM) | 930 ± 0.04 µg/mL (≈ 2140 µM) | viability at 24 h, 3.1 µg/mL [5, 17]: 101.9 ± 0.73%; viability at 48 h, 3.1 µg/mL [5, 17]: 95.71 ± 0.5%; viability at 24 h, 6.25 µg/mL [5, 17]: 98.57 ± 0.27%; viability at 48 h, 6.25 µg/mL [5, 17]: 89.47 ± 0.34%; viability at 24 h, 12.5 µg/mL [5, 17]: 88.26 ± 0.32%; viability at 48 h, 12.5 µg/mL [5, 17]: 69.25 ± 0.3%; viability at 24 h, 25 µg/mL [5, 17]: 77.7 ± 0.88%; viability at 48 h, 25 µg/mL [5, 17]: 40.3 ± 0.68%; viability at 24 h, 50 µg/mL [5, 17]: 65.79 ± 0.42%; viability at 48 h, 50 µg/mL [5, 17]: 26.4 ± 0.46%; MIC [11]: 1870 ± 0.09 µg/mL (≈ 4310 µM); Qualitative antimicrobial activity, Escherichia coli ATCC25922 [12]: -; Qualitative antimicrobial activity, Pseudomonas aeruginosa ATCC27853 [13]: -; Qualitative antimicrobial activity, Staphylococcus aureus ATCC25923 [14]: -; Qualitative antimicrobial activity, Enterococcus faecalis ATCC29212 [15]: -
